# Laboratory results: paper PMC9032718, “Eltrombopag as an Allosteric Inhibitor of the METTL3-14 Complex Affecting the m^6A Methylation of RNA in Acute Myeloid Leukemia Cells” (Pharmaceuticals, 2022)
# Assays:
# [1] = target: T1, METTL3-14 complex (Homo sapiens, UniProt Q86U44); assay: Surface plasmon resonance binding to METTL3-14; settings: SPR
# T1 construct: genes encoding the full-length and MTase domain of human METTL3; METTL3-14 FL: full length of METTL3-14; 10x His (thrombin-cleavable) (cleaved yes); made in house; host or cells: Trichoplusia ni (Hi5) cells co-infected with two baculoviruses (virus made in Sf9)
# T1 sequence (Q86U44 whole entry, the tested form may be a part): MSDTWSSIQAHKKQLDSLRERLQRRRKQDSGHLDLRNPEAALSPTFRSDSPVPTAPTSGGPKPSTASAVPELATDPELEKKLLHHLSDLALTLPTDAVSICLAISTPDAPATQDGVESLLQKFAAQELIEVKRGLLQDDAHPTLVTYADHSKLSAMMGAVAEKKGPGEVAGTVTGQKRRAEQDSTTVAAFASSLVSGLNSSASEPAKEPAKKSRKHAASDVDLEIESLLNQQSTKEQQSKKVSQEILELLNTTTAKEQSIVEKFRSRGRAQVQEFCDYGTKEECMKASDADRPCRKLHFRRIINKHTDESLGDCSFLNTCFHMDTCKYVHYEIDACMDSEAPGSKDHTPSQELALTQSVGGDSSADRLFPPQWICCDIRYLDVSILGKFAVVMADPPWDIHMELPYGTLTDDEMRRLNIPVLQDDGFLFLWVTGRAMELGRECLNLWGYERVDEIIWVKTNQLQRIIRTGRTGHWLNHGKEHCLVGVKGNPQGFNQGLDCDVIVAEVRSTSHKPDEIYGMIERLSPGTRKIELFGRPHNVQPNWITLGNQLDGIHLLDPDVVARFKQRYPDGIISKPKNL
# T1 sequence (Q9HCE5 whole entry partner, the tested form may be a part): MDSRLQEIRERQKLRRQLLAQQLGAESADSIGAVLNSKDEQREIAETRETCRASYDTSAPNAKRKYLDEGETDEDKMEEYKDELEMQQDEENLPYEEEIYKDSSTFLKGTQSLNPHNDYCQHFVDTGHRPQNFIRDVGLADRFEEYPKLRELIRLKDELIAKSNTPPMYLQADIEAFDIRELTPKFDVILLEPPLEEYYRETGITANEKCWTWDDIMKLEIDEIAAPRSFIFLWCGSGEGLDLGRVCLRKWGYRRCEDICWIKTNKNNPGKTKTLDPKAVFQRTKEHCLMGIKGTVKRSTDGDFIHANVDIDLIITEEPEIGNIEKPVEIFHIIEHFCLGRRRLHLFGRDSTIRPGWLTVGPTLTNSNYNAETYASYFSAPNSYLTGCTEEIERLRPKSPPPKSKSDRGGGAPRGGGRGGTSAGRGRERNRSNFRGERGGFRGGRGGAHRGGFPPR
# Protocol: The interaction between eltrombopag and the METTL3-14 complex was explored using a Reichert […] instrument optical biosensor (Reichert Technologies, Depew, NY, USA) equipped with a carboxymethyl dextran sensor chip (part no. 13206066, Reichert Technologies). To activate the sensor chip, free carboxyl groups on the surface were modified by injecting a mixture of 0.1 M of 1-ethyl-3-(3-dimethylaminopropyl) carbodiimide hydrochloride and 0.05 M of N-hydroxysuccinimide at a flow rate of 10 μL/min to generate a reactive succinimide ester surface. […] The binding experiments were performed using a flow rate of 30 μL/min with an association time of 5 min and a dissociation time of 7 min. The regeneration of the surfaces was performed, when necessary, by 10 mM of NaOH. The Langmuir model of the Scrubber2 software was used to determine the equilibrium dissociation constant and kinetic dissociation and association constants.
# [2] = target: T2, MLL4 complex (Homo sapiens, UniProt Q9UMN6); assay: Methyltransferase selectivity panel (MT HotSpot radioisotope assay), MLL4 complex; format: biochemical; settings: 10 μM eltrombopag
# T2 construct: purchased Reaction Biology (Malvern, PA, USA), contract assay
# Protocol: (§1) The selectivity profile of eltrombopag was investigated by testing the level of inhibition in a methyltransferase panel. The inhibition of 7 […] methyltransferase was tested at Reaction Biology (Malvern, PA, USA) using a gold standard radioisotope-based MT assay (MT HotSpot^TM) with 10 μM of eltrombopag in duplicate.
# [3] = test system: m^6A methylation of MOLM-13 transcriptome; assay: m^6A-seq and sequencing data analysis (differential methylation peaks, motifs, annotation, GO enrichment); format: cell-based, human
# Protocol: mRNA was purified using a GenElute™ mRNA Miniprep Kit (SIGMA, MRN10-1KT, St. Louis, MO, USA) according to the manufacturer’s protocol. Briefly, the total RNA was mixed with 2× Binding Solution and oligo(dT) beads, vortexed, and left for 10 min at room temperature. The beads:mRNA complex was passed through a GenElute spin filter/collection tube and washed twice with Wash Solution. The mRNA was eluted in an Elution Solution incubated at 70 °C.
# m^6A-seq was performed using the EpiMark® N^6-Methyladenosine Enrichment Kit (NEB, E1610S). Briefly, 25 μL of Dynabeads™ Protein G (Invitrogen, 10004D) and 1 μL of N^6-Methyladenosine Antibody were incubated in a 4 °C rotator for 2 h. The purified mRNA was fragmented at 95 °C for 10 min in a fragmentation buffer (100 mM Tris (pH 8.0), 8 mM MgCl2) with spike-in control RNA (m^6A and unmodified, 0.1 fmol of each RNA). The fragmented RNA was concentrated with RNA Clean & Concentrator™-5 (ZYMO […], R1014, Irvine, CA, USA) and then 5% was saved as the input. The remaining 95% of the fragmented RNA was added to the beads/antibody complex. RNA was eluted in Buffer RLT (QIAGEN, 79216, Hilden, Germany), followed by ethanol precipitation and was used for sequencing library construction. All sequencing experiments were performed in triplicate via Novaseq. Adapter trimming and QC were performed using Trim Galore. Reads were mapped to hg38 by HISAT2 [56], and exomePeak and HOMER [58] were used to analyze the differential methylation peaks, motifs, and gene annotations.
# [4] = test system: THP-1 cells; assay: Anti-proliferative assay (EZ-cytox), THP-1; format: cell-based; settings: Homo sapiens, THP-1, 72 h
# Protocol: (§2) The MOLM-13, MOLM-14, HL60, MV4-11, and THP-1 cells were seeded in white 96-well clear bottomed plates with 100 μL of medium (5000 cells/well). The plated cells were treated with serially diluted compounds and incubated for 72 h at 37 °C. After incubation, 10 μL of EZ-cytox kit reagent from the EZ-cytox cell viability assay kit (DaeiLab, Seoul, Korea) was added to each well and then incubated for 3 h at 37 °C. The absorbance of metabolically active cells was measured at a wavelength of 450 nm using a Victor multilabel reader (PerkinElmer). The GI50 values were calculated by nonlinear regression analysis using OriginPro 9.1 software (OriginLab).
# [5] = target: T3, SMYD3 (Homo sapiens, UniProt Q9H7B4); assay: Methyltransferase selectivity panel (MT HotSpot radioisotope assay), SMYD3; format: biochemical; settings: 10 μM eltrombopag, SMYD3
# T3 construct: purchased Reaction Biology (Malvern, PA, USA), contract assay
# T3 sequence (Q9H7B4 1-428): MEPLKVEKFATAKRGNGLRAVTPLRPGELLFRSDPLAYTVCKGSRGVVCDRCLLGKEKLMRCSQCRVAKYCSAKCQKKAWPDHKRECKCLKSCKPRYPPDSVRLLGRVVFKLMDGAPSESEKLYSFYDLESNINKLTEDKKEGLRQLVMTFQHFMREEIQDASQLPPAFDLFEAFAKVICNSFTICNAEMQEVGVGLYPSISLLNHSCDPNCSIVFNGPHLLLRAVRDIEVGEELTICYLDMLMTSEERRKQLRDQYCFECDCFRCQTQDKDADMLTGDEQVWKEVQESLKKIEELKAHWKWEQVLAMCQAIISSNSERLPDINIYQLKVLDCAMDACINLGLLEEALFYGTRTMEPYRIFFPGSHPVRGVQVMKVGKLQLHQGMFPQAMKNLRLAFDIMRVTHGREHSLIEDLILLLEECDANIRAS
# Protocol: as §1
# [6] = test system: MOLM-14 cells; assay: Anti-proliferative assay (EZ-cytox), MOLM-14; format: cell-based; settings: Homo sapiens, MOLM-14, 72 h
# Protocol: as §2
# [7] = design: method as in PMID 30305280, PMID 30002802; settings: cited from earlier work
# [8] = test system: HL60 cells; assay: Anti-proliferative assay (EZ-cytox), HL60; format: cell-based; settings: Homo sapiens, HL-60, 72 h
# Protocol: as §2
structure (smiles),measurement,setting,value
CC1=NN(c2ccc(C)c(C)c2)C(=O)/C1=N\Nc1cccc(-c2cccc(C(=O)O)c2)c1O [Eltrombopag],Ka (kinetic association constant),[1],492(4)
same,Kd,"[1]; Langmuir model, read-out: KD (equilibrium dissociation constant)",13.2 µM
same,remaining activity at 10 µM,[2],70.9 ± 2.4%
same,number of differential m^6A methylation sites,"[3]; MOLM-13, 25 μM eltrombopag","10,723"
same,share of differential m^6A sites hypomethylated,"[3]; MOLM-13, 25 μM eltrombopag",71%
same,share of hypermethylation,"[3]; MOLM-13, 25 μM eltrombopag",about 30%
same,share of hypomethylated genes that are noncoding-RNA (ncRNA),[3]; eltrombopag-treated MOLM-13,17%
same,share of hypomethylated genes that are protein-coding,[3]; eltrombopag-treated MOLM-13,~ 80%
same,share of hypomethylated genes that are pseudogenes,[3]; eltrombopag-treated MOLM-13,3%
same,GI50,[4],22.3 ± 0.4 µM
same,remaining activity at 10 µM,[5],98.7 ± 5.7%
same,GI50,[6],10.4 ± 0.7 µM
same,"safety in clinical studies, combination with azacitidine",[7]; combination with azacitidine compared with azacitidine alone,increased progression to acute myeloid leukemia
same,"safety in clinical studies, monotherapy",[7]; monotherapy,didn’t show any safety concerns
same,GI50,[8],12.9 ± 0.9 µM
